Laboratory results from the supplement of paper PMC11150407.

Assays:
Test in all cases: area under dose-response viability curve (log dose) (AUC (arbitrary)); higher = less sensitive
Conditions in all cases: 72 h
AR-42 = compound: CC(C)[C@H](C(=O)Nc1ccc(C(=O)NO)cc1)c1ccccc1 [AR-42]
Procedure: (§1)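 Primary AML blasts from patients (3q26 EVI1-high and other AML) were treated for 72 h with a dose series of each drug. Viability was measured with an ATP-based CellTiter-Glo assay. The area under the curve of the log-transformed dose-response data was computed in GraphPad Prism; a lower AUC means greater sensitivity.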

Vincristine = compound: CC[C@]1(O)C[C@H]2CN(CCc3c([nH]c4ccccc34)[C@@](C(=O)OC)(c3cc4c(cc3OC)N(C=O)[C@H]3[C@@](O)(C(=O)OC)[C@H](OC(C)=O)[C@]5(CC)C=CCN6CC[C@]43[C@@H]65)C2)C1 [Vincristine]
Procedure: as §1

Methotrexate = compound: CN(Cc1cnc2nc(N)nc(N)c2n1)c1ccc(C(=O)N[C@@H](CCC(=O)O)C(=O)O)cc1 [Methotrexate]
Procedure: as §1

Daunorubicine = compound: COc1cccc2c1C(=O)c1c(O)c3c(c(O)c1C2=O)C[C@@](O)(C(C)=O)C[C@@H]3O[C@H]1C[C@H](N)[C@H](O)[C@H](C)O1 [Daunorubicine]
Procedure: as §1

Entinostat = compound: Nc1ccccc1NC(=O)c1ccc(CNC(=O)OCc2cccnc2)cc1 [Entinostat]
Procedure: as §1

Belinostat = compound: O=C(/C=C/c1cccc(S(=O)(=O)Nc2ccccc2)c1)NO [Belinostat]
Procedure: as §1

Test System | area under dose-response viability curve (AR-42) | area under dose-response viability curve (Vincristine) | area under dose-response viability curve (Methotrexate) | area under dose-response viability curve (Daunorubicine) | area under dose-response viability curve (Entinostat) | area under dose-response viability curve (Belinostat)
PR#034 (EVI1 status: EVI1Low) | 142 | 202 | 233 | 192 | 195 | 160
PR#035 (EVI1 status: EVI1Low) | 145 | 119 | 198 | 64.4 | 175 | 168
PR#036 (EVI1 status: EVI1Low) | 130 | 123 | 251 | 48.2 | 172 | 150
PR#037 (EVI1 status: EVI1Low) | 126 | 113 | 213 | 83.7 | 106 | 127
PR#038 (EVI1 status: EVI1Low) | 141 | 187 | 209 | 86 | 143 | 167
PR#039 (EVI1 status: EVI1Low) | 96 | 95.7 | 201 | 24.5 | 125 | 124
